Reference: ChEMBL document CHEMBL2073887, “Hepatobiliary transport kinetics of HSR-903, a new quinolone antibacterial agent” (Drug Metab Dispos, 1998)

Columns and labels:
[1] = molecular target: T1, ATP-binding cassette sub-family C member 2 (Rattus norvegicus, UniProt Q63120); assay: TP_TRANSPORTER: biliary excretion in EHBR rat; assay type: functional, organism-based, Bile; conditions: in vivo
[2] = molecular target: T1, ATP-binding cassette sub-family C member 2; assay: TP_TRANSPORTER: biliary excretion in SD rat; assay type: functional, organism-based, Sprague-Dawley, Bile; conditions: in vivo

T1 sequence (Q63120 whole entry): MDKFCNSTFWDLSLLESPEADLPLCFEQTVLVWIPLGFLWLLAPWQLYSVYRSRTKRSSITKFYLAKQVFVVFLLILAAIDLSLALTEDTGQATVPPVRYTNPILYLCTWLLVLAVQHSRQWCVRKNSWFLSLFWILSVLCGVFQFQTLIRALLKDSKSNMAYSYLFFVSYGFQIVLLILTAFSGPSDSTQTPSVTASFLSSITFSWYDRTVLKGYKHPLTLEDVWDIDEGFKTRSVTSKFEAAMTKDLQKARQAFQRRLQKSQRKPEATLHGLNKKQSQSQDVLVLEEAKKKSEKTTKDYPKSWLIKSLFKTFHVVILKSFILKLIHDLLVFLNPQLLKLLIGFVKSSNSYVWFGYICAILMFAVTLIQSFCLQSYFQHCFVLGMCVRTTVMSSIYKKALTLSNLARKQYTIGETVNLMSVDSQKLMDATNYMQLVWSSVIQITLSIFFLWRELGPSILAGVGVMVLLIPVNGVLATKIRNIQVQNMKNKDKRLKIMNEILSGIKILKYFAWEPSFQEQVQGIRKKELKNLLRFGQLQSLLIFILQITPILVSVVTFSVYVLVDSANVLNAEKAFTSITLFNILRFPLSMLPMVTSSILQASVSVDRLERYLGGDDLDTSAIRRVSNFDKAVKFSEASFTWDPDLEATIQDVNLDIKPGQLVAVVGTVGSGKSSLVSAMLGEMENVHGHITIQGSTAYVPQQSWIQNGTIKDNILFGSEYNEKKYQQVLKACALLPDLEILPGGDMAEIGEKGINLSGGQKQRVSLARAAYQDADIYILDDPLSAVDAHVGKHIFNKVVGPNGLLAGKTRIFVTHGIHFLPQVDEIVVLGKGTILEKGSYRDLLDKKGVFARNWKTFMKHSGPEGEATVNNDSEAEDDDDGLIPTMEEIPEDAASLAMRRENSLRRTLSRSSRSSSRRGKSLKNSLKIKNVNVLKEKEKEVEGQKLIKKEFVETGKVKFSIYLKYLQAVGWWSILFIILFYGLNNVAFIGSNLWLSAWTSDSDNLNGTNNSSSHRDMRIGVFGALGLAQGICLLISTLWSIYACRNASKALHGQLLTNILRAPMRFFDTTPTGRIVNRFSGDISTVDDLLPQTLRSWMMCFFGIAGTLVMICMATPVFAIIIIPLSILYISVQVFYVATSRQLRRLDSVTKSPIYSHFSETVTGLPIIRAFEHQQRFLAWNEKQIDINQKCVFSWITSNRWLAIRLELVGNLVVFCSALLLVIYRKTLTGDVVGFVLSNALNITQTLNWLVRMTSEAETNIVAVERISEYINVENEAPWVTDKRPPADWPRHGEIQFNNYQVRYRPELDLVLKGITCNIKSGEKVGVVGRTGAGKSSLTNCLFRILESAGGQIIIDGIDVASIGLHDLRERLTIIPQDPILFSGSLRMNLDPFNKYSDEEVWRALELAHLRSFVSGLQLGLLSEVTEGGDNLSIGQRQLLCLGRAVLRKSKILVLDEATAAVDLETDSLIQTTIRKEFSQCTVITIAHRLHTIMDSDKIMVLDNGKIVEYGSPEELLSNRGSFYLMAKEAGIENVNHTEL

- Activity [1]: substrate [+]
- Activity [2]: substrate [+]
SMILES: CS(=O)(=O)O.Cc1c(N2C[C@@H](N)C3(CC3)C2)c(F)c(N)c2c(=O)c(C(=O)O)cn(C3CC3)c12
